Patent publication US20240287052A1, “NOVEL OXAZOLE DERIVATIVE AND PHARMACEUTICAL COMPOSITION FOR PREVENTING OR TREATING ALLERGIC DISEASES COMPRISING THE SAME” (AZCURIS CO., LTD., priority 2021, published 2024)
Read-outs that look alike come from different tables or passages of the source.

Target: T1, IL33 and ST2 binding (Homo sapiens, UniProt O95760)
T1 sequence (O95760 112-270 limits assumed): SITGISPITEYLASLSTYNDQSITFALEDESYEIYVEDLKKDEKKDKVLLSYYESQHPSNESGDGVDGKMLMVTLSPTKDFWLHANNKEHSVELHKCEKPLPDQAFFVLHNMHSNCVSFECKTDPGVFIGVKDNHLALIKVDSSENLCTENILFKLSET
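Also: plate ELISA with coated Flag-tagged human IL-33 and His-tagged human ST2, bound ST2 detected by anti-His HRP and TMB absorbance at 450 nm, 2 h compound incubation.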

SMILES | inhibition (30 µM) [%] | inhibition (100 µM) [%]
CN(C)CCNC(=O)c1nc(-c2ccc(-c3ccccc3)cc2)oc1-c1ccccc1 [Compound 253, 2-([1,1′-Biphenyl]-4-yl)-N-(2-(dimethylamino)ethyl)-5-phenyloxazole-4-carboxamide] | 11 | 60
CCOC(=O)c1nc(-c2ccc(OC(F)(F)F)cc2)oc1-c1ccccc1 [Compound 58, Ethyl 5-phenyl-2-(4-(trifluoromethoxy)phenyl)oxazole-4-carboxylate] | 44 | 105
CN(C)CCNC(=O)c1nc(-c2ccc(-c3ccccc3)cc2)oc1-c1ccccc1[N+](=O)[O-] [Compound 255, 2-([1,1′-Biphenyl]-4-yl)-N-(2-(dimethylamino)ethyl)-5-(2-nitrophenyl)oxazole-4-carboxamide] | -10 | 1
O=C(NCc1ccc(C(F)(F)F)cc1)c1nc(-c2ccc(C(F)(F)F)cc2)oc1-c1ccccc1[N+](=O)[O-] [Compound 148, 5-(2-Nitrophenyl)-N-(4-(trifluoromethyl)benzyl)-2-(4-(trifluoromethyl)phenyl)oxazole-4-carboxamide] | 12 | 19
CN(C)CCNC(=O)c1nc(-c2ccccc2C(F)(F)F)oc1-c1ccccc1[N+](=O)[O-] [Compound 119, N-(2-(Dimethylamino)ethyl)-5-(2-nitrophenyl)-2-(2-(trifluoromethyl)phenyl)oxazole-4-carboxamide] | -6 | -14
CCOC(=O)c1nc(-c2ccc(C#N)cc2)oc1-c1ccccc1 [Compound 79, Ethyl 2-(4-cyanophenyl)-5-phenyloxazole-4-carboxylate] | 41 | 107
COc1ccc(CNC(=O)c2nc(-c3ccc(C(F)(F)F)cc3)oc2-c2ccccc2[N+](=O)[O-])cc1 [Compound 166, N-(4-Methoxybenzyl)-5-(2-nitrophenyl)-2-(4-(trifluoromethyl)phenyl)oxazole-4-carboxamide] | 14 | 5

Now from value to compound:

inhibition (30 µM) [%] | inhibition (100 µM) [%] | SMILES
18 | 33 | CC(=O)N1CCN(CCNC(=O)c2nc(-c3cc(F)cc(F)c3)oc2-c2ccccc2[N+](=O)[O-])CC1 [Compound 286, N-(2-(4-Acetylpiperazin-1-yl)ethyl)-2-(3,5-difluorophenyl)-5-(2-nitrophenyl)oxazole-4-carboxamide]
-31 | -18 | CN1CCN(C(=O)c2nc(-c3ccc(C(F)(F)F)cc3)oc2-c2ccccc2[N+](=O)[O-])CC1 [Compound 155, (4-Methylpiperazin-1-yl)(5-(2-nitrophenyl)-2-(4-(trifluoromethyl)phenyl)oxazol-4-yl)methanone]
-18 | 7 | CN(C)CCCN1CCN(C(=O)c2nc(-c3ccc(C(F)(F)F)cc3)oc2-c2ccccc2[N+](=O)[O-])CC1 [Compound 150, (4-(3-(Dimethylamino)propyl)piperazin-1-yl)(5-(2-nitrophenyl)-2-(4-(trifluoromethyl)phenyl)oxazol-4-yl)methanone]
-4 | 7 | O=C(c1nc(-c2ccc(C(F)(F)F)cc2)oc1-c1ccccc1[N+](=O)[O-])N1CCN(CCO)CC1 [Compound 169, (4-(2-Hydroxyethyl)piperazin-1-yl)(5-(2-nitrophenyl)-2-(4-(trifluoromethyl)phenyl)oxazol-4-yl)methanone]
91 | 92 | CN(C)CCNC(=O)c1nc(-c2ccc(C(F)(F)F)cc2)oc1-c1ccccc1[N+](=O)[O-] [Compound 131, N-(2-(Dimethylamino)ethyl)-5-(2-nitrophenyl)-2-(4-(trifluoromethyl)phenyl)oxazole-4-carboxamide]
43 | 50 | CS(=O)(=O)NCCNC(=O)c1nc(-c2ccc(C(F)(F)F)cc2)oc1-c1ccccc1[N+](=O)[O-] [Compound 288, N-(2-(Methylsulfonamido)ethyl)-5-(2-nitrophenyl)-2-(4-(trifluoromethyl)phenyl)oxazole-4-carboxamide]
